Data from BindingDB's records for doi:10.1016/j.ejmech.2014.11.047 (Dongguk University-Seoul, 2015).

Target: Hypoxia-inducible factor 1-alpha (Homo sapiens, UniProt Q16665)
Test: Inhibition of HIF-1alpha in human Hep3B cells cotransfected with pGL3-HRE-luciferase plasmid after 24 hrs by dual-luciferase reporter assay

Chain of Hypoxia-inducible factor 1-alpha (Q16665 whole entry): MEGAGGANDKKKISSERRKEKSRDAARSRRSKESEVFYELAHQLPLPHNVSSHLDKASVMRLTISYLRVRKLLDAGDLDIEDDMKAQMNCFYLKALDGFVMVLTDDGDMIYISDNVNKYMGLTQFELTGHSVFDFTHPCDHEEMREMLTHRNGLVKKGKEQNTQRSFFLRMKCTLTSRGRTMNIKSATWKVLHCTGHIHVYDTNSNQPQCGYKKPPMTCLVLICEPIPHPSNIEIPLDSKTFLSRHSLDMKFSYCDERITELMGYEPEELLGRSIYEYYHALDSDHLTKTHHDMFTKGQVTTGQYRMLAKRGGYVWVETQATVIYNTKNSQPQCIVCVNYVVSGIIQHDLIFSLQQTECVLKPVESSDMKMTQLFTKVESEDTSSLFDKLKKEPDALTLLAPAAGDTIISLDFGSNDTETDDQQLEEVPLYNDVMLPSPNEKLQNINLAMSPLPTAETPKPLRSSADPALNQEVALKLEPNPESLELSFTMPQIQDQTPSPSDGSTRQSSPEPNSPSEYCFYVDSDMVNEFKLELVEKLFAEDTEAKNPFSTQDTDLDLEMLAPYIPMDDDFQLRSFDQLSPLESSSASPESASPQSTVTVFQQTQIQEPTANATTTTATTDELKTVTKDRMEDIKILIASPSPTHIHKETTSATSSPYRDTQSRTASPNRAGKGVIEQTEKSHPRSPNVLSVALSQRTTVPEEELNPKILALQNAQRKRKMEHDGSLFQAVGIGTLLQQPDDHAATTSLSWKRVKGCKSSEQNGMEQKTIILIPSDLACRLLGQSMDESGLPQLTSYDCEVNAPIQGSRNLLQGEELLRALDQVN

IC50: 0.65 nM
Structure (SMILES): CC1(C)Oc2cc3oc(-c4cc(O)cc(O)c4)cc3cc2CC1O (stereo unspecified) [Moracin P]
